Laboratory results: article PMC9071123 (PLoS Neglected Tropical Diseases, 2022)
Where “and” joins values, the source holds several entries; their conditions need not be identical. Equal entries are not always repeated. Structures can show the parent of a compound that is named as a salt. Where two headings read alike, the source gives them in different places.

Experiments:
[1] = tested on: SARS-CoV-2 S-mediated cell-cell fusion; assay type: cell-based
SARS-CoV-2 [2] = settings: previous study ref 19; cited from earlier work
in vitro [3] = settings: African green monkey
SARS-CoV-2 [4] = assay: microbe, parasite or virus in culture; assay type: cell-based, SARS-CoV-2 (WIV-04); settings: Severe acute respiratory syndrome coronavirus 2, Caco-2, 36 h
Vero E6 cells [5] = settings: African green monkey, 36 h
in vitro [6] = settings: human
SARS-CoV-2 [7] = assay: microbe, parasite or virus in culture; assay type: cell-based, SARS-CoV-2 (WIV-04); settings: for EC50: Severe acute respiratory syndrome coronavirus 2, Vero C1008, 36 h
[8] = tested on: VSV-delG-Rluc-SARS-CoV-2-S pseudovirus; assay type: cell-based; settings: 10 μM
Caco2 cells = settings: human, 36 h
[9] = tested on: Renilla luciferase (Rluc) replicon of SARS-CoV-2; assay type: cell-based
SARS-CoV-2 [10] = assay: Virus attachment assay in Vero E6 cells; settings: 10 μM, Vero E6, 4°C 1 h
Description: After synchronized adsorption for 1 h, the unbound SARS-CoV-2 virions were removed by PBS washing, and the relative levels of bound SARS-CoV-2 virions were measured by qRT-PCR assay.

Vero E6 cells [11] = assay: Cytotoxicity CCK8 assay, Vero E6
[12] = Cytotoxicity CCK8 assay, Vero E6; settings: African green monkey, Vero E6 cells

For COc1ccc(C[C@@H]2c3cc(Oc4cc(C[C@@H]5c6cc(O)c(OC)cc6CCN5C)ccc4O)c(OC)cc3CCN2C)cc1 [isoliensinine], the “inhibition of S-mediated cell-cell fusion (syncytial phenotype)” value (“inhibition … (syncytial phenotype)” for short) [1] is listed as “apparent inhibitory effects” and the “inhibition of the SARS-CoV-2 induced cytopathic effect” value (SARS-CoV-2 [2]) is listed as “efficiently inhibit”.
In the case of COc1cc2c3cc1Oc1c(OC)c(OC)cc4c1[C@@H](Cc1ccc(O)c(c1)Oc1ccc(cc1)C[C@@H]3N(C)CC2)N(C)CC4 [Berbamine hydrochloride], the CC50 at 36 h (in vitro [3]) is reported as 66900 nM, the EC50 (SARS-CoV-2 [4]) is reported as 1890 nM and the “%inhibiton, mean (CC50 data, CCK-8)” value (Vero E6 cells [5]; 0.3125 μM) is reported as -6.065%. For the same compound, the “%inhibiton, mean (CC50 data, CCK-8)” value (Vero E6 cells [5]; 0.625 μM) was -4.636%, the “%inhibiton, mean (CC50 data, CCK-8)” value (Vero E6 cells [5]; 1.25 μM) was -0.8416% and the “%inhibiton, mean (CC50 data, CCK-8)” value (Vero E6 cells [5]; 2.5 μM) was -0.7911%. The “%inhibiton, mean (CC50 data, CCK-8)” value (Vero E6 cells [5]; 5 μM) was -7.026%, the “%inhibiton, mean (CC50 data, CCK-8)” value (Vero E6 cells [5]; 10 μM) was -8.006% and the “%inhibiton, mean (CC50 data, CCK-8)” value (Vero E6 cells [5]; 20 μM) was 1.038%. The “%inhibiton, mean (CC50 data, CCK-8)” value (Vero E6 cells [5]; 40 μM) was 73.2674%, the “%inhibiton, mean (CC50 data, CCK-8)” value (Vero E6 cells [5]; 80 μM) was 78.8829% and the CC50 at 36 h (in vitro [6]) was 31900 nM. For the same compound, the EC50 (SARS-CoV-2 [7]) was 1730 nM, the “reduction of intracellular luciferase activity compared to DMSO treatment” value ([8]; Vero E6, 24 h post pseudovirus infection) was “about 10 fold” and the “intracellular luciferase activity, mean” value ([8]; Vero E6, 24 h post-infection (DMSO mean 389736)) was 47678.5. The “%inhibiton, mean (CC50 data, CCK-8)” value (Caco2 cells; 0.3125 μM) was -11.728%, the “%inhibiton, mean (CC50 data, CCK-8)” value (Caco2 cells; 0.625 μM) was -16.6504% and the “%inhibiton, mean (CC50 data, CCK-8)” value (Caco2 cells; 1.25 μM) was -15.2704%. The “%inhibiton, mean (CC50 data, CCK-8)” value (Caco2 cells; 2.5 μM) was -14.7661%, the “%inhibiton, mean (CC50 data, CCK-8)” value (Caco2 cells; 5 μM) was -19.7288% and the “%inhibiton, mean (CC50 data, CCK-8)” value (Caco2 cells; 10 μM) was -18.7648%. The “%inhibiton, mean (CC50 data, CCK-8)” value (Caco2 cells; 20 μM) was -1.748%, the “%inhibiton, mean (CC50 data, CCK-8)” value (Caco2 cells; 40 μM) was 50.1206% and the “%inhibiton, mean (CC50 data, CCK-8)” value (Caco2 cells; 80 μM) was 67.6973%. The “replicon luciferase signal, drug treatment versus DMSO” value [9] was “no significant difference”, the “cell-attached viral RNA copies versus DMSO control group” value (SARS-CoV-2 [10]) was “no significant difference” and the “Viral copies (Normalized to DMSO), mean” value (SARS-CoV-2 [10]; MOI 0.05 (DMSO = 100)) was 94.7359. The “inhibition … (syncytial phenotype)” value [1] was “little or no such syncytial phenotype was observed”.
For COc1ccc2cc1Oc1ccc(cc1)C[C@H]1c3c(cc4c(c3Oc3cc5c(cc3OC)CCN(C)[C@@H]5C2)OCO4)CCN1C [Cepharanthine, cepharanthine], the “%inhibiton, mean (CC50 data, CCK-8)” value (Vero E6 cells [11]; Vero-E6, 0.078125 μM) was 9.153%, the “%inhibiton, mean (CC50 data, CCK-8)” value (Vero E6 cells [11]; Vero-E6, 0.15625 μM) was 9.469% and the “%inhibiton, mean (CC50 data, CCK-8)” value (Vero E6 cells [11]; Vero-E6, 0.3125 μM) was 5.3801%. The “%inhibiton, mean (CC50 data, CCK-8)” value (Vero E6 cells [11]; Vero-E6, 0.625 μM) was 1.292%, the “%inhibiton, mean (CC50 data, CCK-8)” value (Vero E6 cells [11]; Vero-E6, 1.25 μM) was 5.646% and the “%inhibiton, mean (CC50 data, CCK-8)” value (Vero E6 cells [11]; Vero-E6, 2.5 μM) was 5.87%. The “%inhibiton, mean (CC50 data, CCK-8)” value (Vero E6 cells [11]; Vero-E6, 5 μM) was 7.302%, the “%inhibiton, mean (CC50 data, CCK-8)” value (Vero E6 cells [11]; Vero-E6, 10 μM) was 3.537% and the “%inhibiton, mean (CC50 data, CCK-8)” value (Vero E6 cells [11]; Vero-E6, 20 μM) was 2.215%. The CC50 at 36 h [12] was greater than 20000 nM, the “%inhibiton, mean (viral RNA genomic copy number)” value (SARS-CoV-2 [7]) was 99.5371% and 98.6265% and 86.3235% and 71.2349% and 67.6803% and the “inhibition against SARS-CoV-2 infection” value (SARS-CoV-2 [7]) was “dose-dependent inhibition”. For the same compound, the “selective index (SI)” value (SARS-CoV-2 [7]) was greater than 8.93, the EC50 (SARS-CoV-2 [7]) was 2240 nM and the “inhibition … (syncytial phenotype)” value [1] was “apparent inhibitory effects”. For the same compound, the “inhibition of the SARS-CoV-2 induced cytopathic effect” value (SARS-CoV-2 [2]) was “efficiently inhibit”.
For COc1ccc2cc1Oc1ccc(cc1)C[C@H]1c3cc(c(OC)cc3CCN1C)Oc1c(O)c(OC)cc3c1[C@H](C2)N(C)CC3 [Fangchinoline, fangchinoline], the “%inhibiton, mean (CC50 data, CCK-8)” value (Vero E6 cells [11]; Vero-E6, 0.078125 μM) was 7.966%, the “%inhibiton, mean (CC50 data, CCK-8)” value (Vero E6 cells [11]; Vero-E6, 0.15625 μM) was 4.163% and the “%inhibiton, mean (CC50 data, CCK-8)” value (Vero E6 cells [11]; Vero-E6, 0.3125 μM) was 4.478%. For the same compound, the “%inhibiton, mean (CC50 data, CCK-8)” value (Vero E6 cells [11]; Vero-E6, 0.625 μM) was 8.257%, the “%inhibiton, mean (CC50 data, CCK-8)” value (Vero E6 cells [11]; Vero-E6, 1.25 μM) was 10.5597% and the “%inhibiton, mean (CC50 data, CCK-8)” value (Vero E6 cells [11]; Vero-E6, 2.5 μM) was 7.088%. For the same compound, the “%inhibiton, mean (CC50 data, CCK-8)” value (Vero E6 cells [11]; Vero-E6, 5 μM) was 14.0504%, the “%inhibiton, mean (CC50 data, CCK-8)” value (Vero E6 cells [11]; Vero-E6, 10 μM) was 8.415% and the “%inhibiton, mean (CC50 data, CCK-8)” value (Vero E6 cells [11]; Vero-E6, 20 μM) was 0.3804%. For the same compound, the CC50 at 36 h [12] was greater than 20000 nM, the “inhibition against SARS-CoV-2 infection” value (SARS-CoV-2 [7]) was “dose-dependent inhibition” and the “selective index (SI)” value (SARS-CoV-2 [7]) was greater than 9.57. For the same compound, the EC50 (SARS-CoV-2 [7]) was 2090 nM, the “inhibition … (syncytial phenotype)” value [1] was “apparent inhibitory effects” and the “inhibition of the SARS-CoV-2 induced cytopathic effect” value (SARS-CoV-2 [2]) was “efficiently inhibit”.
In the case of COc1cc2c(cc1OC)[C@@H](Cc1ccc(O)c(Oc3cc4c(cc3OC)CCN(C)[C@@H]4Cc3ccc(O)cc3)c1)N(C)CC2 [liensinine], the “inhibition … (syncytial phenotype)” value [1] is given as “apparent inhibitory effects” and the “inhibition of the SARS-CoV-2 induced cytopathic effect” value (SARS-CoV-2 [2]) is given as “efficiently inhibit”.
For COc1ccc2cc1Oc1ccc(cc1)C[C@H]1c3cc(c(OC)cc3CCN1C)Oc1c(OC)c(OC)cc3c1[C@H](C2)N(C)CC3 [Tetrandrine, tetrandrine], the “%inhibiton, mean (CC50 data, CCK-8)” value (Vero E6 cells [11]; Vero-E6, 0.078125 μM) was 5.4651%, the “%inhibiton, mean (CC50 data, CCK-8)” value (Vero E6 cells [11]; Vero-E6, 0.15625 μM) was 9.075% and the “%inhibiton, mean (CC50 data, CCK-8)” value (Vero E6 cells [11]; Vero-E6, 0.3125 μM) was 8.155%. For the same compound, the “%inhibiton, mean (CC50 data, CCK-8)” value (Vero E6 cells [11]; Vero-E6, 0.625 μM) was 11.3125%, the “%inhibiton, mean (CC50 data, CCK-8)” value (Vero E6 cells [11]; Vero-E6, 1.25 μM) was 11.2558% and the “%inhibiton, mean (CC50 data, CCK-8)” value (Vero E6 cells [11]; Vero-E6, 2.5 μM) was 4.063%. For the same compound, the “%inhibiton, mean (CC50 data, CCK-8)” value (Vero E6 cells [11]; Vero-E6, 5 μM) was 5.628%, the “%inhibiton, mean (CC50 data, CCK-8)” value (Vero E6 cells [11]; Vero-E6, 10 μM) was -1.303% and the “%inhibiton, mean (CC50 data, CCK-8)” value (Vero E6 cells [11]; Vero-E6, 20 μM) was -2.23%. For the same compound, the CC50 at 36 h [12] was greater than 20000 nM, the “inhibition against SARS-CoV-2 infection” value (SARS-CoV-2 [7]) was “dose-dependent inhibition” and the “selective index (SI)” value (SARS-CoV-2 [7]) was greater than 6.92. For the same compound, the EC50 (SARS-CoV-2 [7]) was 2890 nM, the “inhibition … (syncytial phenotype)” value [1] was “apparent inhibitory effects” and the “inhibition of the SARS-CoV-2 induced cytopathic effect” value (SARS-CoV-2 [2]) was “efficiently inhibit”.
